Data reported in US20250042886A1, “BIS(HETERO)ARYL THIOETHER OXADIAZINES AS FUNGICIDAL COMPOUNDS” (Bayer Aktiengesellschaft, priority 2021, published 2025).

Legend:
Alternaria brassicae = test: In vivo preventive test on Alternaria brassicae (leaf spot on radish or cabbage); details: 500 ppm of active ingredient, sprayed on young radish or cabbage plants 24 h before inoculation, evaluated 3 to 4 days after inoculation, read-out: efficacy
Method: B-1. […] The active ingredients were made soluble and homogenized in a mixture of Dimethyl sulfoxide/Acetone//Tween® 80 and then diluted in water to the desired concentration. The young plants of radish or cabbage were treated by spraying the active ingredient prepared as described above. Control plants were treated only with an aqueous solution of Acetone/Dimethyl sulfoxide/Tween® 80. After 24 hours, the plants were contaminated by spraying the leaves with an aqueous suspension of Alternaria brassicae spores.

Botrytis cinerea [1] = test: In vivo preventive test on Botrytis cinerea (grey mould); details: 500 ppm of active ingredient, sprayed on young gherkin or cabbage plants 24 h before inoculation, evaluated 4 to 5 days after inoculation, read-out: efficacy
Method: The active ingredients were made soluble and homogenized in a mixture of Dimethyl sulfoxide/Acetone//Tween® 80 and then diluted in water to the desired concentration. The young plants of gherkin or cabbage were treated by spraying the active ingredient prepared as described above. Control plants were treated only with an aqueous solution of Acetone/Dimethyl sulfoxide/Tween® 80. After 24 hours, the plants were contaminated by spraying the leaves with an aqueous suspension of Botrytis cinerea spores.

[2] = Measurement of Log P values by HPLC on reversed phase columns (EEC directive 79/831 Annex V.A8); format: physicochemical; details: Table 1, compounds of formula (I); method [a]: LC-UV, acidic range, 0.1% formic acid in water and acetonitrile
Botrytis cinerea [3] = test: Botrytis cinerea in vitro cell test; format: cell-based; details: 144 h, liquid culture, 6 days incubation, read-out: efficacy (inhibition of fungal growth); for inhibition at 50 µM: 50 μMol/l of active ingredient; for inhibition at 20 ppm: 20 ppm of active ingredient
Method: B-9. Botrytis cinerea In Vitro Cell Test • Solvent: DMSO • Culture medium: 1 g KH2PO4 (VWR), 1 g K2HPO4 (VWR), 0.5 g Urea (VWR), 3 g KNO3 (Prolabo), 10 g saccharose (VWR), 0.5 g MgSO4, 7H2O (Sigma), 0.07 g CaCl2, 2H2O (Prolabo), 0.2 mg MnSO4, H2O (Sigma), 0.6 mg CuSO4, 5H2O (Sigma), 7.9 mg ZnSO4, 7H2O (Sigma), 0.1 mg H3BO3 (Merck), 0.14 mg NaMoO4, 2H2O (Sigma), 2 mg thiamine (Sigma), 0.1 mg biotine (VWR), 4 mg FeSO4, 7H2O (Sigma), QSP 1 liter • Inoculum: spore suspension Fungicides were solubilized in DMSO and the solution used to prepare the required range of concentrations. […] A spore suspension of B. cinerea was prepared and diluted to the desired spore density. Fungicides were evaluated for their ability to inhibit spore germination and mycelium growth in liquid culture assay. The compounds were added in the desired concentration to the culture medium with spores. After 6 days incubation, fungi-toxicity of compounds was determined by spectrometric measurement of mycelium growth. Inhibition of fungal growth was determined by comparing the absorbance values in wells containing the fungicides with the absorbance in control wells without fungicides.

Alternaria alternata = Alternaria alternata in vitro cell test; format: cell-based; details: 120 h, liquid culture, 5 days incubation, read-out: efficacy (inhibition of fungal growth); for inhibition at 50 µM: 50 μMol/l of active ingredient
Method: (§1) B-5. Alternaria alternata In Vitro Cell Test • Solvent: DMSO • Culture medium: 14.6 g anhydrous D-glucose (VWR), 7.1 g Mycological Peptone (Oxoid), 1.4 g granulated Yeast Extract (Merck), QSP 1 liter • Inoculum: spores suspension Fungicides were solubilized in DMSO and the solution used to prepare the required range of concentrations. […] A spore suspension of A. alternata was prepared and diluted to the desired spore density. Fungicides were evaluated for their ability to inhibit spore germination and mycelium growth in liquid culture assay. The compounds were added in the desired concentration to the culture medium with spores. After 5 days incubation, fungi-toxicity of compounds was determined by spectrometric measurement of mycelium growth. Inhibition of fungal growth was determined by comparing the absorbance values in wells containing the fungicides with the absorbance in control wells without fungicides.

Pyrenophora teres = Pyrenophora teres in vitro cell test; format: cell-based; details: 144 h, liquid culture, 6 days incubation, read-out: efficacy (inhibition of fungal growth); for inhibition at 50 µM: 50 μMol/l of active ingredient
Method: as §1, with “B-8. Pyrenophora teres In” for “B-5. Alternaria alternata In”, “Inoculum: spore” for “Inoculum: spores”, “of P. teres” for “of A. alternata”, “After 6” for “After 5”

Fusarium culmorum = Fusarium culmorum in vitro cell test; format: cell-based; details: 120 h, 50 μMol/l of active ingredient, liquid culture, 5 days incubation, read-out: efficacy (inhibition of fungal growth)
Method: B-10. Fusarium culmorum In Vitro Cell Test • Solvent: DMSO • Culture medium: 1 g KH2PO4 (VWR), 1 g K2HPO4 (VWR), 0.5 g Urea (VWR), 3 g KNO3 (Prolabo), 10 g saccharose (VWR), 0.5 g MgSO4, 7H2O (Sigma), 0.07 g CaCl2, 2H2O (Prolabo), 0.2 mg MnSO4, H2O (Sigma), 0.6 mg CuSO4, 5H2O (Sigma), 7.9 mg ZnSO4, 7H2O (Sigma), 0.1 mg H3BO3 (Merck), 0.14 mg NaMoO4, 2H2O (Sigma), 2 mg thiamine (Sigma), 0.1 mg biotine (VWR), 4 mg FeSO4, 7H2O (Sigma), QSP 1 liter • Inoculum: spores suspension
Fungicides were solubilized in DMSO and the solution used to prepare the required range of concentrations. The final concentration of DMSO used in the assay was ≤1%.
A spore suspension of F. culmorum was prepared and diluted to the desired spore density.
Fungicides were evaluated for their ability to inhibit spore germination and mycelium growth in liquid culture assay. The compounds were added in the desired concentration to the culture medium with spores. After 5 days incubation, fungi-toxicity of compounds was determined by spectrometric measurement of mycelium growth. Inhibition of fungal growth was determined by comparing the absorbance values in wells containing the fungicides with the absorbance in control wells without fungicides.

[4] = test system: Colletotrichum lindemuthianum; test: Colletotrichum lindemuthianum in vitro cell test; format: cell-based; details: 144 h, liquid culture, 6 days incubation, read-out: efficacy (inhibition of fungal growth); for inhibition at 50 µM: 50 μMol/l of active ingredient; for inhibition at 20 ppm: 20 ppm of active ingredient
Method: as §1, with “B-7. Colletotrichum lindemuthianum In” for “B-5. Alternaria alternata In”, “of C. lindemuthianum” for “of A. alternata”, “inhibit spores” for “inhibit spore”, “After 6” for “After 5”

Pyricularia oryzae = test: microbe, parasite or virus in culture; format: cell-based; details: 120 h; for inhibition at 50 µM: read-out: efficacy (inhibition of fungal growth), 50 μMol/l of active ingredient, liquid culture, 5 days incubation

| Compound | pest or weed control at 500 ppm (Alternaria brassicae) [%] | pest or weed control at 500 ppm (Botrytis cinerea [1]) [%] | chromatographic logP [2] | inhibition at 50 µM (Botrytis cinerea [3]) [%] | inhibition at 50 µM (Alternaria alternata) [%] | inhibition at 50 µM (Pyrenophora teres) [%] | inhibition at 50 µM (Fusarium culmorum) [%] | inhibition at 50 µM [4] [%] | inhibition at 50 µM (Pyricularia oryzae) [%] | inhibition at 20 ppm (Botrytis cinerea [3]) [%] | inhibition at 20 ppm [4] [%] | inhibition at 20 ppm (Alternaria alternata; 20 ppm of active ingredient) [%] | inhibition at 20 ppm (Pyrenophora teres; 20 ppm of active ingredient) [%] | inhibition at 20 ppm (Pyricularia oryzae; read-out: efficacy (inhibition of fungal growth), 20 ppm of active ingredient, liquid culture, 5 days incubation) [%] |
| --- | --- | --- | --- | --- | --- | --- | --- | --- | --- | --- | --- | --- | --- | --- |
| Cc1cc([C@@H]2CON=C(c3c(Sc4ccccc4C)nnc(C)c3C)N2)c(C)s1 (racemic) [Compound I-121] | 80 to 89 | 90 to 100 | 3.29 | 90 to 100 |  |  |  |  |  |  |  |  |  |  |
| Cc1cc([C@@H]2CON=C(c3c(Sc4ccc5ccccc5c4)nnc(C)c3C)N2)c(C)s1 (racemic) [Compound I-122] |  |  | 3.68 |  | 70 to 79 | 80 to 89 | 90 to 100 | 70 to 79 |  |  |  |  |  |  |
| COc1ccc(Sc2nnc(C)c(C)c2C2=NOC[C@@H](c3cc(C)sc3C)N2)cc1 (racemic) [Compound I-049] |  |  | 3.11 |  | 70 to 79 | 70 to 79 |  |  |  |  |  |  |  |  |
| Cc1cc([C@@H]2CON=C(c3c(Sc4cccc(Cl)c4Cl)nnc(C)c3C)N2)c(C)s1 (racemic) [Compound I-118] |  |  | 3.7 | 90 to 100 | 90 to 100 | 90 to 100 |  | 80 to 89 | 80 to 89 |  |  |  |  |  |
| COc1cccc(Sc2nnc3ccccc3c2C2=NOC[C@@H](Cc3ccc(C)cc3C)N2)c1 (racemic) [Compound I-006] | 90 to 100 | 90 to 100 | 3.84 |  |  |  |  |  |  | 90 to 100 | 90 to 100 |  |  |  |
| Cc1cccc(Sc2nnc(C)c(C)c2C2=NOC[C@H](c3cc(C)sc3C)N2)n1 (racemic) [Compound I-089] | 70 to 79 | 80 to 89 | 2.56 | 70 to 79 |  |  |  |  |  |  |  |  |  |  |
| Cc1ccc([C@@H]2CON=C(c3c(Sc4cccc(Cl)c4Cl)nnc(C)c3C)N2)s1 (racemic) [Compound I-136] |  |  | 3.31 | 90 to 100 | 80 to 89 | 90 to 100 |  |  | 70 to 79 |  |  |  |  |  |
| Cc1cccc(Sc2nnc(Cl)cc2C2=NOC[C@@H](Cc3ccc(Cl)cc3Cl)N2)c1 (racemic) [Compound I-014] |  |  | 4.59 |  |  |  |  |  |  | 90 to 100 |  | 70 to 79 |  |  |
| Cc1cc([C@H]2CON=C(c3c(Sc4ccc(C)c(C)c4)nnc(C)c3C)N2)c(C)s1 (racemic) [Compound I-111] |  | 80 to 89 | 3.64 | 90 to 100 | 70 to 79 | 90 to 100 | 90 to 100 | 90 to 100 |  |  |  |  |  |  |
| Cc1cc([C@H]2CON=C(c3c(Sc4ccc(F)c(Cl)c4)nnc(C)c3C)N2)c(C)s1 (racemic) [Compound I-088] | 70 to 79 | 90 to 100 | 3.62 | 90 to 100 |  |  |  | 90 to 100 |  |  |  |  |  |  |
| Clc1cccc(Sc2nnc(Cl)cc2C2=NOC[C@@H](Cc3ccc(Cl)cc3Cl)N2)c1 (racemic) [Compound I-015] | 80 to 89 | 90 to 100 | 4.73 |  |  |  |  |  |  | 90 to 100 | 90 to 100 |  | 90 to 100 | 90 to 100 |
| Cc1ccc([C@H]2CON=C(c3c(Sc4ccc(F)c(Cl)c4)nnc4ccccc34)N2)s1 (racemic) [Compound I-068] | 80 to 89 | 90 to 100 | 3.74 | 90 to 100 |  | 70 to 79 |  | 90 to 100 |  |  |  |  |  |  |
| Cc1ccc([C@H]2CON=C(c3c(Sc4ccc(F)cc4)nnc4ccccc34)N2)s1 (racemic) [Compound I-060] | 70 to 79 | 90 to 100 | 3.29 | 90 to 100 |  | 70 to 79 | 70 to 79 |  |  |  |  |  |  |  |
| Cc1ccc([C@H]2CON=C(c3c(Sc4ccc(F)c(F)c4)nnc4ccccc34)N2)s1 (racemic) [Compound I-124] | 80 to 89 | 90 to 100 | 3.44 | 90 to 100 |  |  | 80 to 89 | 70 to 79 | 70 to 79 |  |  |  |  |  |
